# Test results taken from US20040176371A1, “Novel pyrazolopyrimidinethione derivatives, preparation methods thereof and their use as therapeutics for erectile dysfunction” (priority 2001, published 2004).
# Key:
# [1] = target: phosphodiesterase III (PDE III); assay: Inhibitory activity against phosphodiesterase III (method of Thompson and Appleman); type: biochemical; conditions: enzyme isolated from diaphragm kidney cortex of rat
# Procedure: (§1) In order to identify the effects of compounds of formula 1 according to the present invention on erectile dysfunction, inhibitory activities against phosphodiesterase V and other isozymes (I, III and VI) were evaluated in accordance with the following procedure.
# (§2) Phosphodiesterases I, III and V were isolated from diaphragm kidney cortex of rat, phosphodiesterase VI was isolated from retina of rat. Inhibitory activities against the isolated enzymes were evaluated by the method of Thompson and Appleman (Thompson and Appleman, Biochemistry, 1971, 10, 311-316). A reaction mixture for enzyme activity [Total volume 100 μl: PDE enzymes (Column fraction 20˜40 μl), […] and 20 μl M calmodulin (10 μl addition for PDE I), [^3H]-cAMP, [^3H]-cGMP(1 μCi/μl), compound of formula 1 (0.01 nM˜1 μM), 50 mM Tris-HCl buffer solution (pH 7.4), 15 mM MgCl2, distilled water] was incubated in a water bath at 30° C. for 30 minutes, and then heat-denatured at 100° C. for 2 minutes to denature enzymes. After the reaction mixture was cooled down on ice, 250 μg/ml venom was added thereto. The resulting mixture was incubated at 30° C. for 10 minutes, and then 0.5 ml of cold d-H2O was added thereto to obtain a specimen. Guanine was separated from the specimen using an anion exchange resin (DEAE Sephacel A-25 anion exchange column). To measure the IC50 of specimen, radioactivity was counted by β-counter after treatment with 10 ml of scintillation cocktail solution.
# [2] = target: T1, phosphodiesterase V (PDE V) (Rattus norvegicus, UniProt O54735); assay: Inhibitory activity against phosphodiesterase V (method of Thompson and Appleman); type: biochemical; conditions: enzyme isolated from diaphragm kidney cortex of rat
# T1 construct: Phosphodiesterases I, III and V were isolated from diaphragm kidney cortex of rat; from tissue; host or cells: rat 'diaphragm kidney cortex'
# Procedure: as §1
# as §2, with “Inhibitory activities against the isolated enzymes were evaluated by the method of Thompson and Appleman (Thompson and Appleman, Biochemistry, 1971, 10, 311-316).” left out
# ICR mice = assay: Acute toxicity when administered orally to mouse; type: in vivo; conditions: single oral administration, both male and female
# Procedure: In order to evaluate the toxicity of the compounds of formula 1 according to the present invention, an experiment was performed as described below.
# The compound prepared in the Example 5 was administered orally to four ICR mice (2 male, 2 female) once at a dose of 128, 320, 800, 2000 and 5000 mg/kg, respectively. 7 days after the administration, mortality rate, general symptoms, changes in weight, and autopsy results were recorded.
# [3] = target: phosphodiesterase I (PDE I); assay: Inhibitory activity against phosphodiesterase I (method of Thompson and Appleman); type: biochemical; conditions: enzyme isolated from diaphragm kidney cortex of rat
# Procedure: as §1, §2
structure (smiles),measurement,setting,value
"CCCc1nn(C)c2c(=S)[nH]c(-c3cc(S(=O)(=O)N4CCN(C)CC4)ccc3OCC)nc12 [Example 5, 5-[2-ethoxy-5-(4-methylpiperazine-1-sulfonyl)phenyl]-1-methyl-3-propyl-1,6-dihydropyrazolo[4,3-d]pyrimidine-7-thione]",IC50,[1],1.25 µM
same,IC50,[2],0.00059 µM
same,minimal lethal dose,ICR mice,more than 5000 mg/kg
same,IC50,[3],1.89 µM
"CCCc1nn(C)c2c(=S)[nH]c(-c3cc(S(=O)(=O)N4CCN(CCO)CC4)ccc3OCC)nc12 [Example 7, 5-{2-ethoxy-5-[4-(2-hydroxyethyl)piperazine-1-sulfonyl]phenyl}-1-methyl-3-propyl-1,6-dihydropyrazolo[4,3-d]pyrimidine-7-thione]",IC50,[1],3.02 µM
same,IC50,[2],0.0004 µM
same,IC50,[3],0.11 µM
"CCCc1nn(C)c2c(=S)[nH]c(-c3cc(S(=O)(=O)N4CCNCC4)ccc3OCC)nc12 [Example 9, 5-[2-ethoxy-5-(piperazine-1-sulfonyl)phenyl]-1-methyl-3-propyl-1,6-dihydropyrazolo[4,3-d]pyrimidine-7-thione]",IC50,[1],5.63 µM
same,IC50,[2],0.00062 µM
same,IC50,[3],2.43 µM
"CCCOc1ccc(S(=O)(=O)N2CCN(C)CC2)cc1-c1nc2c(CCC)nn(C)c2c(=S)[nH]1 [Example 10, 1-methyl-5-[5-(4-methylpiperazine-1-sulfonyl)-2-propoxyphenyl]-3-propyl-1,6-dihydropyrazolo[4,3-d]pyrimidine-7-thione]",IC50,[1],1.03 µM
same,IC50,[2],0.00058 µM
same,IC50,[3],0.62 µM
"CCCOc1ccc(S(=O)(=O)N2CCN(CCO)CC2)cc1-c1nc2c(CCC)nn(C)c2c(=S)[nH]1 [Example 12, 5-{5-[4-(2-hydroxyethyl)piperazine-1-sulfonyl]-2-propoxyphenyl}-1-methyl-3-propyl-1,6-dihydropyrazolo[4,3-d]pyrimidine-7-thione]",IC50,[1],1.08 µM
same,IC50,[2],0.00046 µM
same,IC50,[3],0.01 µM
"CCCc1nn(C)c2c(=O)[nH]c(-c3cc(S(=O)(=O)N4CCN(C)CC4)ccc3OCC)nc12 [Sildenafil, reference compound]",IC50,[1],1.75 µM
same,IC50,[3],2.25 µM
